The source made the active and inactive calls. No cut-off for these calls is given here.
Legend:
Klebsiella pneumoniae [1] = assay: Antibacterial activity against Klebsiella pneumoniae ATCC BAA-1705 assessed as inhibition of bacterial growth incubated for 24 hrs by CLSI protocol based microdilution method; type: functional
Escherichia coli [2] = assay: Bactericidal activity against Escherichia coli ATCC CRM-11229 assessed as reduction in bacterial growth incubated for 24 hrs by Mueller Hinton Agar based plate analysis; type: functional
[3] = Cytotoxicity against NMDF cells assessed as viable cells at 12.5 uM incubated for 24 hrs by MTT assay relative to control; type: toxicity, cell-based; settings: mouse, read-out: Activity
U-937 = assay: Immunomodulatory activity in human U-937 cells assessed as reduction in LPS-induced IL-6 expression level incubated for 24 hrs by radioimmunoprecipitation based dot-plot analysis; type: functional, cell-based; settings: dose 5-10 µM
Staphylococcus aureus [4] = assay: Antibacterial activity against methicillin resistant Staphylococcus aureus assessed as inhibition of bacterial growth incubated for 0.5 to 8.5 hrs by microtiter plate reader analysis; type: functional, organism-based; settings: dose 1.25-40 µM, time 0.5-8.5 hrs
Pseudomonas aeruginosa [5] = assay: Antibacterial activity against Pseudomonas aeruginosa assessed as inhibition of bacterial growth incubated for 0.5 to 8.5 hrs by microtiter plate reader analysis; type: functional, organism-based; settings: dose 1.25-40 µM, time 0.5-8.5 hrs
Escherichia coli [6] = assay: Antibacterial activity against Escherichia coli assessed as inhibition of bacterial growth at 1.25 to 40 uM incubated for 8 hrs by microtiter plate reader analysis; type: functional, organism-based; settings: dose 1.25-40 µM
Klebsiella pneumoniae [7] = assay: Antibacterial activity against carbapenem resistant Klebsiella pneumoniae ATCC BAA-1705 assessed as inhibition of bacterial growth incubated for 8 hrs at 1.25 to 40 uM by microtiter plate reader analysis; type: functional, organism-based; settings: dose 1.25-40 µM
Klebsiella pneumoniae [8] = assay: Induction of morphological changes in carbapenem resistant Klebsiella pneumoniae ATCC BAA-1705 at MIC concentration incubated for 6 hrs by AFM analysis; type: functional, organism-based
Escherichia coli [9] = assay: Induction of morphological changes in Escherichia coli assessed as cellular destruction at MIC concentration incubated for 6 hrs by AFM analysis; type: functional, organism-based
Pseudomonas aeruginosa [10] = assay: Induction of morphological changes in Pseudomonas aeruginosa assessed as cellular destruction at MIC concentration incubated for 6 hrs by AFM analysis; type: functional, organism-based
Klebsiella pneumoniae [11] = assay: Induction of morphological changes in carbapenem resistant Klebsiella pneumoniae ATCC BAA-1705 at MIC concentration incubated for 6 hrs by SEM analysis; type: functional, organism-based
Escherichia coli [12] = assay: Induction of morphological changes in Escherichia coli assessed as membrane perturbation at MIC concentration incubated for 60 mins by SEM analysis; type: functional, organism-based
Escherichia coli [13] = assay: Induction of morphological changes in Escherichia coli assessed as cell blebbing at MIC concentration incubated for 60 mins by SEM analysis; type: functional, organism-based
Cell membrane [14] = assay: Induction of cytoplasmic membrane depolarization in Pseudomonas aeruginosa assessed as increase in fluorescence intensity at 0.5 to 1 times of MIC by DiSC3-5 dye based fluorescence method; type: subcellular
Cell membrane [15] = assay: Induction of cytoplasmic membrane depolarization in Klebsiella pneumoniae assessed as increase in fluorescence intensity at 0.5 to 1 times of MIC incubated for 22 mins by DiSC3-5 dye based fluorescence method; type: subcellular
Cell membrane [16] = assay: Induction of inner membrane permeabilization in Escherichia coli assessed as increase in fluorescence at 0.5 to 1 times of MIC incubated for 60 mins by PI staining based fluorescence analysis; type: subcellular
Cell membrane [17] = assay: Induction of inner membrane permeabilization in Pseudomonas aeruginosa assessed as increase in fluorescence at 0.5 to 1 times of MIC incubated for 60 mins by PI staining based fluorescence analysis; type: subcellular
Cell membrane [18] = assay: Induction of inner membrane permeabilization in Klebsiella pneumoniae assessed as increase in fluorescence at 0.5 to 1 times of MIC incubated for 60 mins by PI staining based fluorescence analysis; type: subcellular
Klebsiella pneumoniae [19] = assay: Antibacterial activity against Klebsiella pneumoniae assessed as induction of cellular damage at MIC concentration incubated for 30 mins by SYTO9/PI staining based fluorescence microscopic analysis; type: functional, organism-based
Escherichia coli [20] = assay: Antibacterial activity against Escherichia coli assessed as cell division block by measuring bacterial filamentation at 0.5 to 1 times of MIC incubated for 30 mins by SYTO9/PI staining based fluorescence microscopic analysis; type: functional, organism-based
Klebsiella pneumoniae [21] = assay: Antibacterial activity against Klebsiella pneumoniae assessed as cell division block by measuring bacterial filamentation at 0.5 to 1 times of MIC incubated for 30 mins by SYTO9/PI staining based fluorescence microscopic analysis; type: functional, organism-based
Klebsiella pneumoniae [22] = assay: Antibacterial activity against Klebsiella pneumoniae assessed as cell division block by measuring cellular elongation at 0.5 to 1 times of MIC incubated for 30 mins by SYTO9/PI staining based fluorescence microscopic analysis; type: functional, organism-based
Pseudomonas aeruginosa [23] = assay: Antibacterial activity against Pseudomonas aeruginosa assessed as cell division block by measuring cellular elongation at 0.5 to 1 times of MIC incubated for 30 mins by SYTO9/PI staining based fluorescence microscopic analysis; type: functional, organism-based
Staphylococcus aureus [24] = assay: Antibiofilm activity against methicillin-resistant Staphylococcus aureus assessed as biofilm eradication at 0.5 times of MIC incubated for 24 hrs by CV staining based analysis relative to control; type: functional
Klebsiella pneumoniae [25] = assay: Antibiofilm activity against Klebsiella pneumoniae assessed as eradication of preformed biofilm at 0.5 times of MIC incubated for 24 hrs by CV staining based analysis relative to control; type: functional
Escherichia coli [26] = assay: Antibiofilm activity against Escherichia coli in the presence of Na+; type: functional, organism-based
Klebsiella pneumoniae [27] = assay: Antibiofilm activity against Klebsiella pneumoniae in the presence of Na+; type: functional, organism-based
Klebsiella pneumoniae [28] = assay: Antibiofilm activity against Klebsiella pneumoniae assessed as biofilm disintegration at 0.5 to 1 times of MIC incubated for 24 hrs by Congo red dye based fluorescence analysis; type: functional, organism-based
Staphylococcus aureus [29] = assay: Antibiofilm activity in methicillin-resistant Staphylococcus aureus assessed as biofilm clearance incubated for 24 hrs by Congo red dye based fluorescence analysis; type: functional, organism-based
Klebsiella pneumoniae [30] = assay: Antibiofilm activity against preformed biofilm in Klebsiella pneumoniae assessed as decrease in metabolic activity at MIC incubated overnight by MTT assay; type: functional, organism-based
Staphylococcus aureus [31] = assay: Antibiofilm activity against preformed biofilm in methicillin-resistant Staphylococcus aureus assessed as decrease in cell viability at MIC incubated overnight by MTT assay relative to control; type: functional
NMDF = assay: Induction of cell migration in NMDF cells at 10 uM incubated for 24 hrs by wound healing scratch/mirgation assay; type: functional, cell-based; settings: Mus musculus
[32] = Induction of wound healing in surgically-induced Albino Wistar rat wound model assessed as decrease in mean open wound percentage at 10 uM measured after 11 days by photographic analysis (reference value: 32.25%); type: functional; parameters: scale not given: the % may be the effect or the level left; settings: time 11 day
Rattus norvegicus [33] = organism: Rattus norvegicus; assay: Induction of wound healing in surgically-induced Albino Wistar rat wound model inoculated with methicillin-resistant Staphylococcus aureus assessed as dense epithelial-tissue layers at 10 uM measured after 11 days by H&E staining based analysis; type: functional; settings: time 11.0 day
Rattus norvegicus [34] = organism: Rattus norvegicus; assay: Induction of wound healing in surgically-induced Albino Wistar rat wound model assessed as proper formation of hair follicles at 10 uM measured after 11 days by H&E staining based analysis; type: functional; settings: time 11.0 day
Rattus norvegicus [35] = organism: Rattus norvegicus; assay: Induction of wound healing in surgically-induced Albino Wistar rat wound model assessed as proper formation of sebaceous gland at 10 uM measured after 11 days by H&E staining based analysis; type: functional; settings: time 11.0 day
Pseudomonas aeruginosa [36] = assay: Induction of resistance development in Pseudomonas aeruginosa assessed as change in MIC at 0.5 times of MIC incubated with compound for 12 hrs followed by replacement with fresh medium for 12 hrs and measured after 20 repeated cycles; type: functional, organism-based; settings: time 240.0 hrs

With H-FLPIIKWVKKFFWRWR-OH the MIC (Klebsiella pneumoniae [1]) was 8 µM, the MBC (Escherichia coli [2]) was 4.5 µM and the viability at 24 h, 12.5 µM [3] was > 85%. For the same substance, the Activity (U-937) was “Dose-Dependent Effect”, the Activity (Staphylococcus aureus [4]) was “Dose-Dependent Effect” and the Activity (Pseudomonas aeruginosa [5]) was “Dose-Dependent Effect”. The Activity (Escherichia coli [6]) was “Active”, the Activity (Klebsiella pneumoniae [7]) was “Active” and the Activity (Klebsiella pneumoniae [8]) was “Active”. The Activity (Escherichia coli [9]) was “Active”, the Activity (Pseudomonas aeruginosa [10]) was “Active” and the Activity (Klebsiella pneumoniae [11]) was “Active”. For the same substance, the Activity (Escherichia coli [12]) was “Active”, the Activity (Escherichia coli [13]) was “Active” and the Activity (Cell membrane [14]) was “Active”. For the same substance, the Activity (Cell membrane [15]) was “Active”, the Activity (Cell membrane [16]) was “Active” and the Activity (Cell membrane [17]) was “Active”. The Activity (Cell membrane [18]) was “Active”, the Activity (Klebsiella pneumoniae [19]) was “Active” and the Activity (Escherichia coli [20]) was “Active”. For the same substance, the Activity (Klebsiella pneumoniae [21]) was “Active”, the Activity (Klebsiella pneumoniae [22]) was “Active” and the Activity (Pseudomonas aeruginosa [23]) was “Active”. For the same substance, the Activity (Staphylococcus aureus [24]) was ~70%, the Activity (Klebsiella pneumoniae [25]) was ~56% and the Activity (Escherichia coli [26]) was “Active”. The Activity (Klebsiella pneumoniae [27]) was “Active”, the Activity (Klebsiella pneumoniae [28]) was “Active” and the Activity (Staphylococcus aureus [29]) was “Dose-Dependent Effect”. The Activity (Klebsiella pneumoniae [30]) was “Active”, the Activity (Staphylococcus aureus [31]) was 33.89% and the Activity (NMDF) was “Active”. For the same substance, the Activity [32] was 5.6%, the Activity (Rattus norvegicus [33]) was “Active” and the Activity (Rattus norvegicus [34]) was “Active”. The Activity (Rattus norvegicus [35]) was “Active” and the Activity (Pseudomonas aeruginosa [36]) was “inactive”.

— ChEMBL document CHEMBL5360649, “Potential Broad-Spectrum Antimicrobial, Wound Healing, and Disinfectant Cationic Peptide Crafted from Snake Venom” (J Med Chem, 2023)
